Results reported in patent US8784774B2, “Labeled molecular imaging agents and methods of use” (General Electric Company, priority 2011, dated 2014).
Like-named read-outs stand apart in the source and are kept apart here.

Assays:
[1] = molecular target: T1, cystine/glutamate transporter (Mus musculus, UniProt Q9WTR6); assay: cell-based
T1 sequence (Q9WTR6 1-502): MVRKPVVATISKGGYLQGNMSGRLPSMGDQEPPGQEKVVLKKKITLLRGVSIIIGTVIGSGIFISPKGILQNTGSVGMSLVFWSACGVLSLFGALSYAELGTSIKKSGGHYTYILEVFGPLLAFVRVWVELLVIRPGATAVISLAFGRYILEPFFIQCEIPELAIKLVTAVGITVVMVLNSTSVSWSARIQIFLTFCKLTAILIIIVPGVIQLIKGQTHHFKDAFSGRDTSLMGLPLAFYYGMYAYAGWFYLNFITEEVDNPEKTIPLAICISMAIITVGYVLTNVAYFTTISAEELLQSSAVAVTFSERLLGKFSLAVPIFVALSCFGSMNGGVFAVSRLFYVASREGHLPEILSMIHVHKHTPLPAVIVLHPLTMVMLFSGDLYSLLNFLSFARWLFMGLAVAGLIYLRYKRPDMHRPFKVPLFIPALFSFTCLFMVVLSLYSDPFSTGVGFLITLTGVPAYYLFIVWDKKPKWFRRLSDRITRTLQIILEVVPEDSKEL
T1 sequence (P10852 1-526 partner): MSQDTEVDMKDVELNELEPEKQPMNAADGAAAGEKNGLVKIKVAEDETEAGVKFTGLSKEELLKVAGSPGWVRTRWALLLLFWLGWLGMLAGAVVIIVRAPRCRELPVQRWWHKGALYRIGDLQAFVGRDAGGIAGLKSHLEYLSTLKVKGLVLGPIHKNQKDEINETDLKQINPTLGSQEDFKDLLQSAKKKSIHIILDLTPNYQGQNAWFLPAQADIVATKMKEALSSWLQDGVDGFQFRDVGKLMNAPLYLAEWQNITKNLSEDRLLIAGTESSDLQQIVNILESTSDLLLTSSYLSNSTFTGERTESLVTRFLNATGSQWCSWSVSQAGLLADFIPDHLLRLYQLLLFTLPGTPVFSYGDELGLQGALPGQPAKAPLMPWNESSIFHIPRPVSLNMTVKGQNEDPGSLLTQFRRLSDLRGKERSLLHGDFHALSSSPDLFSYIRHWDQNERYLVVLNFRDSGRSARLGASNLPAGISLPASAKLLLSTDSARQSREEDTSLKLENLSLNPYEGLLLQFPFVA

[2] = molecular target: T1, cystine/glutamate transporter; assay: Screen of unlabeled compounds for competition with 3H-L-ASU uptake (Example 3); format: cell-based; parameters: endogenous in cells; settings: read-out: inhibition of ^3H-L-ASU uptake
[3] = molecular target: T1, cystine/glutamate transporter; assay: 3H-L-Asu uptake in EL4 cells with or without DEM and with transporter inhibitors (Example 1); format: cell-based; parameters: endogenous in cells; host or cells: EL4 mouse lymphoma cells, with or without diethylmaleate (DEM) treatment
Description: Mouse lymphoma cells (EL4) were cultured with or without 100 μM diethylmaleate for 24 hours, washed in phosphate buffered saline (PBS) divided into aliquots of 5×10^6 cells and incubated with [^3H]-L-2-aminosuberic acid (^3H-L-Asu) without or with inhibitors of the cystine/glutamate transporter for 15 minutes. Cells were then washed 3 times and collected in a 1 ml volume of 1M HCl and transferred to a scintillation vial. 12 ml of Ready Gel scintillation fluid was added to each sample and cell uptake was determined by scintillation counting using a Perkin Elmer Tri-Carb Liquid Scintillation Analyzer.

[4] = tested on: EL4 xenograft tumor tissue slices; assay: Ex vivo uptake in EL4 xenograft tumor tissue slices (Example 5); format: cell-based, mouse; settings: 0.33 μCi, 30 minutes, agents matched for specific activity and radioactive dose
Description: We compared uptake of ^3H-ASU in tumor tissue ex vivo with uptake of ^3H-FDG, a tritiated form of the common ^18F-FDG imaging agent. the two agents were matched for specific activity and radioactive dose. 0.33 μCi of agent was incubated with equivalent aliquots of EL4 xenograft tumor tissue slices for 30 minutes (tumors processed with three passes on a McIlwain Tissue chopper, at 500 um steps, and washed with fresh buffer). Slices where washed three times, lysed with 1M HCl and evaluated by scintillation counting.

[5] = molecular target: T1, cystine/glutamate transporter; assay: Uptake of labeled compounds in DEM treated EL4 cells with or without SSZ (Example 2); format: cell-based; parameters: endogenous in cells; host or cells: EL4 mouse lymphoma cells, with or without diethylmaleate (DEM) treatment; settings: for inhibition of uptake by SSZ: 500 μM SSZ; for Uptake relative to ^3H-GLU: 0.33 μCi; for SSZ inhibition (%): uptake of the labeled compound with 500 μM SSZ
Description: 5×10^6 DEM treated EL4 cells were incubated with 0.33 μCi of either [^3H]-L-ASU, [^3H]-L-GLU or [^35S]-L-Cystine (with or without 500 μM SSZ) for 15 minutes before being washed three times in PBS and uptake was analyzed via liquid scintillation counting.

[6] = molecular target: T1, cystine/glutamate transporter; settings: read-out: IC50 for inhibition of ^3H-L-GLU uptake; DEM treated EL4 cells; separate set of experiments
[7] = unlabeled competitor at high concentration (2.5 mM)

Compound: N[C@H](CCCCCC(=O)O)C(=O)O [D-ASU]
- IC50 [1]: 36.2 µM
- inhibition at 2500 µM [2]: > 90%

Compound: N[C@@H](CCCC(=O)O)C(=O)O [L-AAA, L-aminoadipic acid]
- IC50 [1]: 23.9 µM
- inhibition at 2500 µM [2, 7]: > 90%

Compound: [3H]C(CCC(=O)O)C([3H])C[C@H](N)C(=O)O (stereo partly drawn) [^3H-Asu, (S)-2-amino 4,5-^3H-suberic acid]
- ^3H-L-Asu uptake in cells exposed to oxidative stress ([3]; EL4 cells, 100 μM diethylmaleate (DEM) 24 hours vs without, 15 minutes incubation): increased
- more uptake than ^3H-FDG [4]: 70%
- inhibition of uptake by SSZ [5]: almost completely inhibited
- Uptake relative to ^3H-GLU ([5]; 15 minutes): 447.0 (±22.1)
- uptake efficiency relative to L-GLU uptake ([5]; 15 minutes): approximately 4.5 times
- SSZ inhibition (%) ([5]; 15 minutes): 95.8 (±0.17) %

Compound: N[C@@H](CCC(=O)NCC(=O)O)C(=O)O [γ-glutamyl-glycine]
- inhibition at 2500 µM [2, 7]: < 45%

Compound: N[C@@H](CCCCCC(=O)O)C(=O)O [L-ASU, L-aminosuberic acid]
- inhibition at 2500 µM ([3]; EL4, read-out: inhibition of ^3H-L-Asu uptake): > 95%
- IC50 [1]: 2.9 µM
- inhibition at 2500 µM [2]: > 90%

Compound: N[C@@H](CSSC[C@H](N)C(=O)O)C(=O)O [^35S-Cystine, [^35S]-L-Cystine]
- inhibition of uptake by SSZ [5]: approximately ⅔
- Uptake relative to ^3H-GLU ([5]; 15 minutes): 168.8 (±2.0)
- SSZ inhibition (%) ([5]; 15 minutes): 68.7 (±1.76) %

Compound: N[C@H](CCC[C@H](N)C(=O)O)C(=O)O [DiAPA, diaminopimelic acid]
- inhibition at 2500 µM [2, 7]: < 45%

Compound: O=C(O)CCCCCCC(=O)O [suberic acid]
- inhibition at 2500 µM [2, 7]: < 45%

Compound: N[C@@H](CCC(=O)O)C(=O)O [L-GLU, L-glutamate]
- IC50 [6]: 4.7 µM

Compound: O=C(O)c1cc(/N=N/c2ccc(S(=O)(=O)Nc3ccccn3)cc2)ccc1O [sulfasalazine]
- inhibition at 500 µM ([3]; inhibitor 500 μM, EL4 cells, 15 minutes): > 95%
